# Values of other authors, collected in article PMC11990879, “Anticandidal Activity of Lipopeptides Containing an LL-37-Derived Peptide Fragment KR12” (Molecules, 2025).
# Marks after values point to notes of the source that are not given here. Where a SMILES comes first, the peptide text is derived from it. The star is where a group is joined. Butanoyl(4-Ph) = O=C(CCCc1ccccc1)*; Hydrocinnamoyl = O=C(CCc1ccccc1)*; Octanoyl = CCCCCCCC(=O)*; X3 = O=C(/C=C/c1ccccc1)*; Hexanoyl = CCCCCC(=O)*; X2 = O=C(C#Cc1ccccc1)*; X4 = CCCCC(CC)C(=O)*; Butyryl = CCCC(=O)*
# Tested on: human red blood cells
# Conditions: cited from earlier work
# From the text: Table 2 Minimum inhibitory concentrations (MIC) and minimum fungicidal concentrations (MFC) determined for peptides and reference antifungals [g/L]. The highest antimicrobial activity is marked in green, medium values in yellow, while the weakest antifungal activity is marked in red. Minimum hemolytic concentration (MHC5%—causing hemolysis of 5% of human red blood cells) determined in previous stu | column: MHC5%
row,Compound,MHC5% (minimum hemolytic concentration causing hemolysis of 5% of human red blood cells)
1,"CC[C@H](C)[C@H](NC(=O)[C@H](CCCNC(=N)N)NC(=O)[C@H](CCC(N)=O)NC(=O)[C@@H](NC(=O)[C@@H](NC(=O)[C@H](CCCNC(=N)N)NC(=O)[C@H](CCCCN)NC(=O)C#Cc1ccccc1)[C@@H](C)CC)C(C)C)C(=O)N[C@@H](CCCCN)C(=O)N[C@@H](CC(=O)O)C(=O)N[C@@H](Cc1ccccc1)C(=O)N[C@@H](CC(C)C)C(=O)N[C@@H](CCCNC(=N)N)C(N)=O [XXIV, Phenylpropiolic acid-KR12-NH2] (X2-KRIVQRIKDFLR-NH2)",256 g/L
2,"CCCCC(CC)C(=O)N[C@@H](CCCCN)C(=O)N[C@@H](CCCNC(=N)N)C(=O)N[C@H](C(=O)N[C@H](C(=O)N[C@@H](CCC(N)=O)C(=O)N[C@@H](CCCNC(=N)N)C(=O)N[C@H](C(=O)N[C@@H](CCCCN)C(=O)N[C@@H](CC(=O)O)C(=O)N[C@@H](Cc1ccccc1)C(=O)N[C@@H](CC(C)C)C(=O)N[C@@H](CCCNC(=N)N)C(N)=O)[C@@H](C)CC)C(C)C)[C@@H](C)CC (stereo partly drawn) [XX, 2-Ethylhexanoic acid-KR12-NH2] (X4-KRIVQRIKDFLR-NH2)",256 g/L
3,"CCCCCCCC(=O)N[C@@H](CCCCN)C(=O)N[C@@H](CCCCN)C(=O)N[C@@H](CCCNC(=N)N)C(=O)N[C@H](C(=O)N[C@H](C(=O)N[C@@H](CCC(N)=O)C(=O)N[C@@H](CCCNC(=N)N)C(=O)N[C@H](C(=O)N[C@@H](CCCCN)C(=O)N[C@@H](CC(=O)O)C(=O)N[C@@H](Cc1ccccc1)C(=O)N[C@@H](CC(C)C)C(=O)N[C@@H](CCCNC(=N)N)C(N)=O)[C@@H](C)CC)C(C)C)[C@@H](C)CC [XII, C8^α-Lys-KR12-NH2] (Octanoyl-KKRIVQRIKDFLR-NH2)",256 g/L
4,"CC[C@H](C)[C@H](NC(=O)[C@H](CCCNC(=N)N)NC(=O)[C@H](CCC(N)=O)NC(=O)[C@@H](NC(=O)[C@@H](NC(=O)[C@H](CCCNC(=N)N)NC(=O)[C@H](CCCCN)NC(=O)CCCc1ccccc1)[C@@H](C)CC)C(C)C)C(=O)N[C@@H](CCCCN)C(=O)N[C@@H](CC(=O)O)C(=O)N[C@@H](Cc1ccccc1)C(=O)N[C@@H](CC(C)C)C(=O)N[C@@H](CCCNC(=N)N)C(N)=O [XXIII, 4-Phenylbutanoic acid-KR12-NH2] ({Butanoyl(4-Ph)}-KRIVQRIKDFLR-NH2)",128 g/L
5,"CCCCCCCC(=O)NCCCC[C@H](N)C(=O)N[C@@H](CCCNC(=N)N)C(=O)N[C@H](C(=O)N[C@H](C(=O)N[C@@H](CCC(N)=O)C(=O)N[C@@H](CCCNC(=N)N)C(=O)N[C@H](C(=O)N[C@@H](CCCCN)C(=O)N[C@@H](CC(=O)O)C(=O)N[C@@H](Cc1ccccc1)C(=O)N[C@@H](CC(C)C)C(=O)N[C@@H](CCCNC(=N)N)C(N)=O)[C@@H](C)CC)C(C)C)[C@@H](C)CC [XI, C8^ε-KR12-NH2] (H-K(Octanoyl)RIVQRIKDFLR-NH2)",>256 * g/L
6,"CC[C@H](C)[C@H](NC(=O)[C@H](CCCNC(=N)N)NC(=O)[C@H](CCC(N)=O)NC(=O)[C@@H](NC(=O)[C@@H](NC(=O)[C@H](CCCNC(=N)N)NC(=O)[C@H](CCCCN)NC(=O)/C=C/c1ccccc1)[C@@H](C)CC)C(C)C)C(=O)N[C@@H](CCCCN)C(=O)N[C@@H](CC(=O)O)C(=O)N[C@@H](Cc1ccccc1)C(=O)N[C@@H](CC(C)C)C(=O)N[C@@H](CCCNC(=N)N)C(N)=O [IX, trans-cinnamic acid-KR12-NH2] (X3-KRIVQRIKDFLR-NH2)",128 g/L

# Same assay, conditions: human red blood cells; determined in previous studies; ref [13],[14]; cited from earlier work
row,Compound,MHC5% (minimum hemolytic concentration causing hemolysis of 5% of human red blood cells)
1,"Ac-KRIVQRIKDFLR-NH2 [I, Ac-KR12-NH2]",>256 * g/L
2,"CCCCCCCC(=O)N[C@@H](CCCNC(=N)N)C(=O)N[C@@H](CC(C)C)C(=O)N[C@@H](Cc1ccccc1)C(=O)N[C@@H](CC(=O)O)C(=O)N[C@@H](CCCCN)C(=O)N[C@H](C(=O)N[C@@H](CCCNC(=N)N)C(=O)N[C@@H](CCC(N)=O)C(=O)N[C@H](C(=O)N[C@H](C(=O)N[C@@H](CCCNC(=N)N)C(=O)N[C@@H](CCCCN)C(N)=O)[C@@H](C)CC)C(C)C)[C@@H](C)CC [XVIII, C8^α-retro-KR12-NH2] (Octanoyl-RLFDKIRQVIRK-NH2)",>256 * g/L
3,"CCCCCC(=O)N[C@@H](CCCCN)C(=O)N[C@@H](CCCNC(=N)N)C(=O)N[C@H](C(=O)N[C@H](C(=O)N[C@@H](CCC(N)=O)C(=O)N[C@@H](CCCNC(=N)N)C(=O)N[C@H](C(=O)N[C@@H](CCCCN)C(=O)N[C@@H](CC(=O)O)C(=O)N[C@@H](Cc1ccccc1)C(=O)N[C@@H](CC(C)C)C(=O)N[C@@H](CCCNC(=N)N)C(N)=O)[C@@H](C)CC)C(C)C)[C@@H](C)CC [III, C6-KR12-NH2] (Hexanoyl-KRIVQRIKDFLR-NH2)",256 g/L
4,"CCCCCCCC(=O)NCCCC[C@H](NC(=O)[C@H](CCCNC(=N)N)NC(=O)[C@H](CC(C)C)NC(=O)[C@H](Cc1ccccc1)NC(=O)[C@H](CC(=O)O)NC(=O)[C@H](CCCCN)NC(=O)[C@@H](NC(=O)[C@H](CCCNC(=N)N)NC(=O)[C@H](CCC(N)=O)NC(=O)[C@@H](NC(=O)[C@@H](NC(=O)[C@H](CCCNC(=N)N)NC(=O)[C@@H](N)CCCCN)[C@@H](C)CC)C(C)C)[C@@H](C)CC)C(N)=O [XIV, KR12-Lys^ε(C8)-NH2] (H-KRIVQRIKDFLRK(Octanoyl)-NH2)",>256 * g/L
5,"CCCCCCCC(=O)NCCCC[C@H](NC(=O)[C@H](CCCNC(=N)N)NC(=O)[C@@H](NC(=O)[C@@H](NC(=O)[C@H](CCC(N)=O)NC(=O)[C@H](CCCNC(=N)N)NC(=O)[C@@H](NC(=O)[C@H](CCCCN)NC(=O)[C@H](CC(=O)O)NC(=O)[C@H](Cc1ccccc1)NC(=O)[C@H](CC(C)C)NC(=O)[C@@H](N)CCCNC(=N)N)[C@@H](C)CC)C(C)C)[C@@H](C)CC)C(N)=O [XVII, Retro-KR12-C8^ε-NH2] (H-RLFDKIRQVIRK(Octanoyl)-NH2)",256 g/L
6,"CCCC(=O)N[C@@H](CCCCN)C(=O)N[C@@H](CCCNC(=N)N)C(=O)N[C@H](C(=O)N[C@H](C(=O)N[C@@H](CCC(N)=O)C(=O)N[C@@H](CCCNC(=N)N)C(=O)N[C@H](C(=O)N[C@@H](CCCCN)C(=O)N[C@@H](CC(=O)O)C(=O)N[C@@H](Cc1ccccc1)C(=O)N[C@@H](CC(C)C)C(=O)N[C@@H](CCCNC(=N)N)C(N)=O)[C@@H](C)CC)C(C)C)[C@@H](C)CC [II, C4-KR12-NH2] (Butyryl-KRIVQRIKDFLR-NH2)",>256 * g/L
7,"CCCCCCCC(=O)NCCCC[C@H](N)C(=O)N[C@@H](CCCCN)C(=O)N[C@@H](CCCNC(=N)N)C(=O)N[C@H](C(=O)N[C@H](C(=O)N[C@@H](CCC(N)=O)C(=O)N[C@@H](CCCNC(=N)N)C(=O)N[C@H](C(=O)N[C@@H](CCCCN)C(=O)N[C@@H](CC(=O)O)C(=O)N[C@@H](Cc1ccccc1)C(=O)N[C@@H](CC(C)C)C(=O)N[C@@H](CCCNC(=N)N)C(N)=O)[C@@H](C)CC)C(C)C)[C@@H](C)CC [XIII, C8^ε-Lys-KR12-NH2] (H-K(Octanoyl)KRIVQRIKDFLR-NH2)",256 g/L
8,"CCCCCCCC(=O)NCCCC[C@H](NC(=O)[C@H](CC(C)C)NC(=O)[C@H](Cc1ccccc1)NC(=O)[C@H](CC(=O)O)NC(=O)[C@H](CCCCN)NC(=O)[C@@H](NC(=O)[C@H](CCCNC(=N)N)NC(=O)[C@H](CCC(N)=O)NC(=O)[C@@H](NC(=O)[C@@H](NC(=O)[C@H](CCCNC(=N)N)NC(=O)[C@@H](N)CCCCN)[C@@H](C)CC)C(C)C)[C@@H](C)CC)C(N)=O [XV, [Lys^ε(C8)]^12KR12-NH2] (H-KRIVQRIKDFLK(Octanoyl)-NH2)",>256 * g/L
9,"CC[C@H](C)[C@H](NC(=O)[C@H](CCCNC(=N)N)NC(=O)[C@H](CCC(N)=O)NC(=O)[C@@H](NC(=O)[C@@H](NC(=O)[C@H](CCCNC(=N)N)NC(=O)[C@H](CCCCN)NC(=O)CCc1ccccc1)[C@@H](C)CC)C(C)C)C(=O)N[C@@H](CCCCN)C(=O)N[C@@H](CC(=O)O)C(=O)N[C@@H](Cc1ccccc1)C(=O)N[C@@H](CC(C)C)C(=O)N[C@@H](CCCNC(=N)N)C(N)=O [XXII, 3-Phenylpropionic acid-KR12-NH2] (Hydrocinnamoyl-KRIVQRIKDFLR-NH2)",256 g/L
